Results on seven compounds are retold here after ChEMBL document CHEMBL4219265, “Piperlongumine derivative, CG-06, inhibits STAT3 activity by direct binding to STAT3 and regulating the reactive oxygen species in DU145 prostate carcinoma cells” (Bioorg Med Chem Lett, 2018).

Series [1] deals with T1, Signal transducer and activator of transcription 3 (Homo sapiens, UniProt P40763). As to the kind of experiment: Inhibition of STAT3 phosphorylation at Tyr705 residues in human DU145 cells assessed as ratio of phosphorylated STAT3 protein level to GAPDH protein level at 1 uM after 24 hrs by Western blot analysis (reference value: 1). Format: cell-based.
The test system of series [2] is DU-145. Nature of the series: Effect on total STAT3 protein level in human DU145 cells assessed as ratio of STAT3 protein level to GAPDH protein level at 1 uM after 24 hrs by Western blot analysis (reference value: 1). It is filed as ADME, cell-based. The settings on record: du-145, 24 h. (A western blot detects proteins with antibodies after separation by electrophoresis.)

For series [3], the system named is DU-145. As to the kind of experiment: Effect on total STAT3 protein level in human DU145 cells assessed as ratio of STAT3 protein level to GAPDH protein level at 3 uM after 24 hrs by Western blot analysis (reference value: 1). The settings on record: du-145, 24 h. Format: ADME, cell-based.
The subject of series [4] is DU-145. As to the kind of experiment: Effect on total STAT3 protein level in human DU145 cells assessed as ratio of STAT3 protein level to GAPDH protein level at 7 uM after 24 hrs by Western blot analysis (reference value: 1). Format: ADME, cell-based. The settings on record: du-145, 24 h.
The test system of series [5] is PC-3. As to the kind of experiment: Growth inhibition of human PC3 cells after 24 to 48 hrs by WST-1 assay. Format: functional. In general terms: Formazan colour is commonly taken as a measure of viable cells.
Series [6] has as its system PC-3. Nature of the series: Growth inhibition of human PC3 cells after 48 hrs by WST-1 assay. Format: functional. The settings on record: PC-3, 48 h.
For series [7], the target named is T1, Signal transducer and activator of transcription 3. Nature of the series: Inhibition of STAT3 phosphorylation at Tyr705 residues in human DU145 cells assessed as ratio of phosphorylated STAT3 protein level to GAPDH protein level at 5 uM after 24 hrs by Western blot analysis (reference value: 1). Format: cell-based.
Series [8] deals with LNCaP. As to the kind of experiment: Growth inhibition of human LNCAP cells after 24 to 48 hrs by WST-1 assay. Format: functional.
The target of series [9] is T1, Signal transducer and activator of transcription 3. As to the kind of experiment: Inhibition of STAT3 phosphorylation at Tyr705 residues in human DU145 cells after 24 hrs by Western blot analysis. It is filed as cell-based.
Series [10] deals with DU-145. As to the kind of experiment: Growth inhibition of human DU145 cells after 48 hrs by WST-1 assay. It is filed as functional. Conditions: DU-145, 48 h.
In series [11] the target is T1, Signal transducer and activator of transcription 3. Nature of the series: Inhibition of STAT3 phosphorylation at Tyr705 residues in human DU145 cells assessed as ratio of phosphorylated STAT3 protein level to GAPDH protein level at 7 uM after 24 hrs by Western blot analysis (reference value: 1). Format: cell-based.
Series [12] shares this target. As to the kind of experiment: Inhibition of STAT3 phosphorylation at Tyr705 residues in human DU145 cells assessed as ratio of phosphorylated STAT3 protein level to GAPDH protein level at 10 uM after 24 hrs by Western blot analysis (reference value: 1). Format: cell-based.
Series [13] shares this target. Nature of the series: Inhibition of STAT3 phosphorylation at Tyr705 residues in human DU145 cells assessed as ratio of phosphorylated STAT3 protein level to GAPDH protein level at 3 uM after 24 hrs by Western blot analysis (reference value: 1). Format: cell-based.
The target is the same in series [14]. Nature of the series: Inhibition of STAT3 phosphorylation at Tyr705 residues in human DU145 cells by Western blot analysis. Format: cell-based.
Series [15] concerns DU-145. Nature of the series: Effect on total STAT3 protein level in human DU145 cells assessed as ratio of STAT3 protein level to GAPDH protein level at 10 uM after 24 hrs by Western blot analysis (reference value: 1). It is filed as ADME, cell-based. The settings on record: du-145, 24 h.
Series [16] deals with LNCaP. As to the kind of experiment: Growth inhibition of human LNCAP cells after 48 hrs by WST-1 assay. Format: functional.
The test system of series [17] is DU-145. As to the kind of experiment: Effect on total STAT3 protein level in human DU145 cells assessed as ratio of STAT3 protein level to GAPDH protein level at 5 uM after 24 hrs by Western blot analysis (reference value: 1). It is filed as ADME, cell-based. The settings on record: du-145, 24 h.
Series [18] deals with T1, Signal transducer and activator of transcription 3. Nature of the series: Inhibition of STAT3 phosphorylation in human DU145 cells assessed as ratio of phosphorylated STAT3 protein level to GAPDH protein level at […] after 1 hr by Western blot analysis (reference value: 1). Format: cell-based.
For series [19], the system named is DU-145. Nature of the series: Effect on total STAT3 protein level in human DU145 cells assessed as ratio of ERK1/2 protein level to GAPDH protein level at 2 mM after 1 hr by Western blot analysis (reference value: 1). Format: ADME, cell-based. The settings on record: du-145, 1 h, 2000 µM.

T1 sequence (P40763 whole entry): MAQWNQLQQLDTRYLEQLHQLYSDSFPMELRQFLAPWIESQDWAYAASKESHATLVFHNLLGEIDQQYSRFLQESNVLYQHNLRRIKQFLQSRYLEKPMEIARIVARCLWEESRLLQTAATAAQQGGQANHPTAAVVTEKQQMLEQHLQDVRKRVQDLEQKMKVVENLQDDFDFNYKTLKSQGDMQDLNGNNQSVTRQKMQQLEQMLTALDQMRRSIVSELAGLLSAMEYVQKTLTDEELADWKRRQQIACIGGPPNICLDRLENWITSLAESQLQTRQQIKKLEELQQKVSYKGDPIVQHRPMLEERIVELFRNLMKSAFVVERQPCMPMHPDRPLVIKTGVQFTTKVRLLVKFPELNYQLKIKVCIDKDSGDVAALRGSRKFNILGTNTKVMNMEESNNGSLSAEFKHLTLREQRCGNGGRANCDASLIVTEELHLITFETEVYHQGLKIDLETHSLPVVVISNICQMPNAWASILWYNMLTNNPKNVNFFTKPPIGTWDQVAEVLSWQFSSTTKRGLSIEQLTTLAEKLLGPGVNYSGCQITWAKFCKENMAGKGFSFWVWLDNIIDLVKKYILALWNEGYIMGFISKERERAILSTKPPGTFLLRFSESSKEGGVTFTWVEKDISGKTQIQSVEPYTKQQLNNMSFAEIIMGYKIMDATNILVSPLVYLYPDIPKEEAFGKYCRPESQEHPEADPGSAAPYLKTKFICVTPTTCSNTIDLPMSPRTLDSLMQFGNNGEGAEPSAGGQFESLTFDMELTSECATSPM

Turning to `COc1cc(/C=C/C(=O)N2CCC=CC2=O)cc(OC)c1OC` [PIPLARTINE], the Ratio in series [1] was 0.8; in the series on DU-145 [2], 1; in the series on DU-145 [3] it was 1.1; with DU-145 [4], 1; in series [7], 0.7; in [11] it was 0.5. For the same compound, the Ratio in [12] worked out at 0.3; in series [13] it was 0.7; in the series with DU-145 [15] it was 0.9; in the series on DU-145 [17], 1. Moreover, the GI50 (usually the concentration giving 50% growth inhibition) was above 10 µM with PC-3 [5]; above 10 µM in the series with PC-3 [6]; above 10 µM with LNCaP [8]; 7.1 µM with DU-145 [10]; 9.2 µM in the series on LNCaP [16]. Further, the IC50 (in general, the concentration needed to halve the response being measured) in [9] was 7 µM. In series [14], the inhibition result was “Dose-dependent effect”.
Regarding `C#CCN(C(=O)/C=C/c1cc(OC)c(OC)c(OC)c1)C(=O)C(=C)C`, the GI50 in the series with PC-3 [6] is 7.3 µM; in the series with DU-145 [10] it was 2.3 µM; with LNCaP [16], above 10 µM.
For `C=C(C)C(=O)N(Cc1cccc(Br)c1)C(=O)/C=C/c1cc(OC)c(OC)c(OC)c1`, in that order: above 10 µM, 5.7 µM and 10 µM.
`C=C(C)C(=O)N(Cc1ccccc1C)C(=O)/C=C/c1cc(OC)c(OC)c(OC)c1`: the GI50 in the series on PC-3 [6] was above 10 µM; in the series on DU-145 [10], 4.2 µM; with LNCaP [16] it was 10 µM.
In the case of `C=C(C)C(=O)N(C)C(=O)/C=C/c1cc(OC)c(OC)c(OC)c1`, the concentration for 50% growth inhibition (GI50) in the series on PC-3 [6] is above 10 µM; in the series with DU-145 [10] it was 5.6 µM; in the series with LNCaP [16], above 10 µM.
Regarding `CC(=O)N[C@@H](CS)C(=O)O` [ACETYLCYSTEINE], the results for the Ratio (in [18]; in the series with DU-145 [19]) were 1 and 0.8, respectively.
With `C=C(C)C(=O)NC(=O)/C=C/c1cc(OC)c(OC)c(OC)c1`, the 50% growth inhibitory concentration (GI50) with PC-3 [6] was found to be 8.2 µM; in the series with DU-145 [10], 8.6 µM; in the series on LNCaP [16] it was 10 µM.
